Source: paper PMC8419995, “In vitro and in vivo efficacy of thiacloprid against Echinococcus multilocularis” (Parasites & Vectors, 2021)

Columns and labels:
[1] = Toxicity of thiacloprid in vivo (serum biochemistry, blood cells, histopathology); settings: normal BALB/c mice, 6 weeks; for Alanine aminotransferase / Albumin / Alkaline phosphatase / Aspartate aminotransferase / Blood urea nitrogen / Creatinine / Direct bilirubin / Globulin / Indirect bilirubin / Total bilirubin / Total protein: serum; for Hemoglobin / PLT / RBC / WBC: whole blood
Protocol: Based on the previous thiacloprid dose concentration, we selected 15 mg/kg and 30 mg/kg thiacloprid concentrations to evaluate the toxicity in vivo [35]. The toxicity of thiacloprid was assessed in normal BALB/c mice. Normal mice were randomly divided into three groups and received the following treatments (6 animals per group): The control group was not administered any drug; the Thia15 group and Thia30 group received thiacloprid orally (15 mg/kg/day and 30 mg/kg/day). After 6 weeks of treatment, blood samples were collected from the orbital sinus of mice under anesthesia before euthanasia, which were preserved in EDTA-K2 anticoagulant tubes for white blood cell (WBC), hemoglobin (Hb) and platelet (PLT) analysis. For assessing biochemical indicators, blood samples were incubated in anticoagulant-free tubes at 37 °C for 1 h, followed by 3500 rpm centrifugation for 10 min. The isolated serum samples were used to detect relative levels of alanine aminotransferase (ALT), aspartate aminotransferase (AST), total bilirubin (TBIL), direct bilirubin (DBIL), indirect bilirubin (IBIL), total protein (TP), albumin (ALB), alkaline phosphatase (ALP), creatinine (CREA) and blood urea nitrogen (BUN). Subsequently, mice were sacrificed for harvesting the liver and kidneys, which were fixed in 4% paraformaldehyde, prepared for hematoxylin–eosin (HE) staining and observed under a Zeiss Vert.A1 microscope.
Tissues from experimental animals were washed in PBS and fixed in 4% paraformaldehyde at room temperature for […]. On the next day, they were dehydrated, embedded, and sliced into 5-μm sections. After dewaxing and dehydrating, sections were stained with hematoxylin for 2–5 min, and re-stained with eosin for 15 s. They were sealed with neutral gum and observed under a BX51 microscope (Olympus, Tokyo, Japan).

[2] = tested on: E. multilocularis protoscoleces; assay: Protoscolex viability, 0.1% eosin exclusion test; assay type: cell-based, Echinococcus multilocularis
Protocol: Viable protoscoleces were cultured in Medium 199, supplemented with 1% penicillin–streptomycin, 50 μg/ml gentamicin and 4 mg/ml glucose according to a previously described method. […] PZQ was used as a positive control. The protoscoleces were cultured in an incubator at 37 °C and 5% CO2 for 7 days. Additionally, 0.1% eosin exclusion test was used to evaluate the viability of protoscoleces. To reduce the bias as much as possible, protoscolex viability was observed by two experimenters under double-blind conditions. Each experiment was conducted three times.

[3] = tested on: E. multilocularis metacestodes; assay: Morphology of in vitro treated metacestode vesicles (light microscope, SEM, TEM); assay type: cell-based, Echinococcus multilocularis; settings: 5 μM, 5 days
Protocol: The variations in the microstructure of the protoscoleces or metacestodes were observed under an electron microscope. In vitro-cultured E. multilocularis protoscoleces and metacestodes were treated with thiacloprid at 0 and 5 μM for 5 days at 37 °C and 5% CO2. They were washed twice in PBS and then fixed for 3 h with 2.5% glutaraldehyde (pH = 7.2); next, they underwent 2 h post-fixation in 2% OsO4 (SPI-CHEM, West Chester, PA, USA). Subsequently, the samples were washed in double-distilled water and treated with 1% uranyl acetate for 25 min. After the samples were washed again in double-distilled water, dehydration was conducted in ethanol at continuous gradients (30–50–70–80–90–95–100%) over a period of 10 min. For SEM analysis, the dehydrated samples were dipped into hexamethyldisiloxane and then air-dried in a fume hood. The sample was observed under a Hitachi SU8100 scanning electron microscope (Tokyo, Japan) after gold spraying. For TEM analysis, the dehydrated samples passed through a dehydrating agent, and an epoxy resin (SPI-CHEM) permeated and polymerized at 60 °C overnight. A 50-nm ultra-thin section was prepared and then loaded on a 300-mesh copper grid. It was stained with uranyl acetate and lead citrate (SPI-CHEM). The sample was observed under a Hitachi HT7700 transmission electron microscope. […]

[4] = tested on: T lymphocyte subsets in metacestodes and spleen; assay: T lymphocyte subset analysis and spleen index in infected mice; assay type: in vivo; settings: infected BALB/c mice; 6 weeks oral treatment; flow cytometry
Protocol: In vitro-grown metacestode vesicles were pressed through a 500 µm mesh and washed three times with sterile PBS. The parasite tissue was then taken up in an equal volume of sterile PBS. Each mouse was intraperitoneally injected with 200 μl suspension. Seven mice were injected with 200 μl PBS as the control group. Twenty-eight infected mice were randomly distributed into four groups (7 mice/group): the untreated group was not administered any drug; the ABZ group was treated with ABZ orally (100 mg/kg/day); and the Thia15 group and Thia30 group received thiacloprid orally (15 mg/kg/day and 30 mg/kg/day). Treatments of mice started 2 weeks post-infection, and treatments were administered daily for 6 weeks. […] All metacestode tissues were collected, and the total wet weight of metacestodes per mice was determined. Furthermore, the content of cytokines in microcyst fluid was detected by enzyme-linked immunosorbent assay (ELISA). […]
The spleens of mice were removed and then weighed to calculate the spleen index. […] The lymphocytes were incubated with FITC-conjugated anti-CD3 (BioLegend, San Diego, CA, USA), PE-conjugated anti-CD4 (BioLegend), and APC-conjugated anti-CD8 (BioLegend) antibodies, and then analyzed by flow cytometry using a NovoCyte flow cytometer (ACEA/Agilent, Santa Clara, CA, USA).

N#C/N=C1\SCCN1Cc1ccc(Cl)nc1 [thiacloprid]
Alanine aminotransferase ([1]; 15 mg/kg/day orally): 66.00 ± 5.33 U/L | Albumin ([1]; 15 mg/kg/day orally): 28.95 ± 2.35 g/L | Alkaline phosphatase ([1]; 15 mg/kg/day orally): 57.67 ± 5.43 U/L | Aspartate aminotransferase ([1]; 15 mg/kg/day orally): 164.70 ± 36.71 U/L | Blood urea nitrogen ([1]; 15 mg/kg/day orally): 7.23 ± 1.87 mmol/L | Creatinine ([1]; 15 mg/kg/day orally): 16.08 ± 1.87 μM/L | Direct bilirubin ([1]; 15 mg/kg/day orally): 0.13 ± 0.05 μM/L | Globulin ([1]; 15 mg/kg/day orally): 36.67 ± 4.71 g/L | Indirect bilirubin ([1]; 15 mg/kg/day orally): 0.44 ± 0.17 μM/L | Total bilirubin ([1]; 15 mg/kg/day orally): 0.60 ± 0.10 μM/L | Total protein ([1]; 15 mg/kg/day orally): 65.90 ± 4.76 g/L | Hemoglobin ([1]; 15 mg/kg/day orally): 203.00 ± 11.15 g/L | PLT ([1]; 15 mg/kg/day orally): 613.70 ± 145.00 10^9/L | RBC ([1]; 15 mg/kg/day orally): 11.39 ± 1.48 10^12/L | WBC ([1]; 15 mg/kg/day orally): 11.69 ± 1.30 10^9/L | Alanine aminotransferase ([1]; 30 mg/kg/day orally): 67.50 ± 5.01 U/L | Albumin ([1]; 30 mg/kg/day orally): 29.72 ± 1.49 g/L | Alkaline phosphatase ([1]; 30 mg/kg/day orally): 58.50 ± 7.82 U/L | Aspartate aminotransferase ([1]; 30 mg/kg/day orally): 180.50 ± 45.71 U/L | Blood urea nitrogen ([1]; 30 mg/kg/day orally): 7.15 ± 0.47 mmol/L | Creatinine ([1]; 30 mg/kg/day orally): 15.18 ± 2.44 μM/L | Direct bilirubin ([1]; 30 mg/kg/day orally): 0.19 ± 0.16 μM/L | Globulin ([1]; 30 mg/kg/day orally): 37.77 ± 4.81 g/L | Indirect bilirubin ([1]; 30 mg/kg/day orally): 0.42 ± 0.19 μM/L | Total bilirubin ([1]; 30 mg/kg/day orally): 0.59 ± 0.16 μM/L | Total protein ([1]; 30 mg/kg/day orally): 65.82 ± 4.39 g/L | Hemoglobin ([1]; 30 mg/kg/day orally): 206.0 ± 9.93 g/L | PLT ([1]; 30 mg/kg/day orally): 670.80 ± 150.20 10^9/L | RBC ([1]; 30 mg/kg/day orally): 9.58 ± 0.82 10^12/L | WBC ([1]; 30 mg/kg/day orally): 12.72 ± 1.75 10^9/L | Histopathological examination of liver and kidneys (HE staining) ([1]; 15 and 30 mg/kg/day orally): did not show obvious histopathological changes or injury | Effect on protoscolex viability ([2]; 1.2 μM): no significant effect | Dead protoscoleces ([2]; 5 μM for 4 days): 47.33 ± 4.04% | Morphological alterations of metacestode vesicles under a light microscope [3]: contraction and collapse | TEM of metacestode vesicles [3]: obvious ultrastructural damage | CD4+ T lymphocytes in the metacestodes and spleen compared with the untreated group [4]: increased | CD8+ T lymphocytes in the metacestodes and spleen compared with the untreated group [4]: decreased
